Test results reported in ChEMBL document CHEMBL2157907, “Optimization of anti-Trypanosoma cruzi oxadiazoles leads to identification of compounds with efficacy in infected mice” (Bioorg Med Chem, 2012).
The source made the active and inactive calls. No cut-off for these calls is given here.

Tests used:
[1] = target: Cruzipain (Trypanosoma cruzi) (UniProt P25779); assay: Inhibition of Trypanosoma cruzi cruzain using Z-Phe-Arg-aminomethylcoumarin as substrate at 100 uM after 10 mins
[2] = Cytotoxicity against BALB/c mouse splenocytes after 24 hrs by [3H]-thymidine incorporation assay; type: cell-based, Splenocyte; conditions: read-out: LC50
[3] = tested on: Mus musculus; assay: Toxicity in BALB/c mouse assessed as serum alkaline phosphatase level at 25 mg/kg, po after 24 hrs; type: organism-based; parameters: dose 25 mg/kg, route oral; conditions: in vivo
[4] = tested on: Mus musculus; assay: Toxicity in BALB/c mouse assessed as serum globulin level at 25 mg/kg, po after 24 hrs; type: organism-based; parameters: dose 25 mg/kg, route oral; conditions: in vivo
[5] = tested on: Mus musculus; assay: Toxicity in BALB/c mouse assessed as mortality at 25 to 100 mg/kg, po; type: organism-based; parameters: dose 25-100 mg/kg, route oral; conditions: in vivo
[6] = tested on: Mus musculus; assay: Toxicity in BALB/c mouse assessed as serum cholesterol level at 50 mg/kg, po after 24 hrs; type: organism-based; parameters: dose 50 mg/kg, route oral; conditions: in vivo
[7] = tested on: Mus musculus; assay: Toxicity in BALB/c mouse assessed as serum ALT level at 25 mg/kg, po after 24 hrs; type: organism-based; parameters: dose 25 mg/kg, route oral; conditions: in vivo
[8] = tested on: Mus musculus; assay: Toxicity in BALB/c mouse assessed as serum BUN level at 25 mg/kg, po after 24 hrs; type: organism-based; parameters: dose 25 mg/kg, route oral; conditions: in vivo
[9] = tested on: Trypanosoma cruzi; assay: Induction of ultrastructural changes in trypomastigotes of Trypanosoma cruzi Y assessed as plasma membrane protrusions at 10 uM after 24 hrs by scanning electron microscopic analysis; type: functional
[10] = Therapeutic index, ratio of LC50 for BALB/c mouse splenocytes to IC50 for Trypanosoma cruzi Y; conditions: read-out: Ratio LC50/IC50
[11] = tested on: Mus musculus; assay: Toxicity in BALB/c mouse assessed as serum ALB level at 100 mg/kg, po after 24 hrs; type: organism-based; parameters: dose 100 mg/kg, route oral; conditions: in vivo
[12] = tested on: Mus musculus; assay: Toxicity in BALB/c mouse assessed as serum total proteins level at 100 mg/kg, po after 24 hrs; type: organism-based; parameters: dose 100 mg/kg, route oral; conditions: in vivo
[13] = tested on: Mus musculus; assay: Toxicity in BALB/c mouse assessed as serum BUN level at 100 mg/kg, po after 24 hrs; type: organism-based; parameters: dose 100 mg/kg, route oral; conditions: in vivo
[14] = tested on: Mus musculus; assay: Toxicity in BALB/c mouse assessed as serum globulin level at 100 mg/kg, po after 24 hrs; type: organism-based; parameters: dose 100 mg/kg, route oral; conditions: in vivo
[15] = tested on: Mus musculus; assay: Toxicity in BALB/c mouse assessed as serum total proteins level at 25 mg/kg, po after 24 hrs; type: organism-based; parameters: dose 25 mg/kg, route oral; conditions: in vivo
[16] = tested on: Trypanosoma cruzi; assay: Antitrypanosomal activity against trypomastigotes of Trypanosoma cruzi Y infected in rhesus monkey LLC-MK2 cells assessed parasite viability after 24 hrs; type: functional, organism-based; conditions: LLC-MK2, 24 h
[17] = tested on: Trypanosoma cruzi; assay: Induction of endoplasmic reticulum degeneration in trypomastigotes of Trypanosoma cruzi Y at 3.5 uM after 24 hrs by […] electron microscopic analysis; type: functional, organism-based
[18] = tested on: Trypanosoma cruzi; assay: Induction of kinetoplast enlargement in trypomastigotes of Trypanosoma cruzi Y at 3.5 uM after 24 hrs by […] electron microscopic analysis; type: functional, organism-based
[19] = tested on: Mus musculus; assay: Toxicity in BALB/c mouse assessed as serum total proteins level at 50 mg/kg, po after 24 hrs; type: organism-based; parameters: dose 50 mg/kg, route oral; conditions: in vivo
[20] = tested on: Mus musculus; assay: Toxicity in BALB/c mouse assessed as serum AML level at 100 mg/kg, po after 24 hrs; type: organism-based; parameters: dose 100 mg/kg, route oral; conditions: in vivo
[21] = tested on: Mus musculus; assay: Toxicity in BALB/c mouse assessed as serum AML level at 50 mg/kg, po after 24 hrs; type: organism-based; parameters: dose 50 mg/kg, route oral; conditions: in vivo
[22] = tested on: Mus musculus; assay: Toxicity in BALB/c mouse assessed as serum ALT level at 50 mg/kg, po after 24 hrs; type: organism-based; parameters: dose 50 mg/kg, route oral; conditions: in vivo
[23] = tested on: Trypanosoma cruzi; assay: Induction of golgi apparatus degeneration in trypomastigotes of Trypanosoma cruzi Y at 3.5 uM after 24 hrs by […] electron microscopic analysis; type: functional, organism-based
[24] = tested on: Mus musculus; assay: Toxicity in BALB/c mouse assessed as serum GGT level at 25 mg/kg, po after 24 hrs; type: organism-based; parameters: dose 25 mg/kg, route oral; conditions: in vivo
[25] = tested on: Mus musculus; assay: Toxicity in BALB/c mouse assessed as serum uric acid level at 50 mg/kg, po after 24 hrs; type: organism-based; parameters: dose 50 mg/kg, route oral; conditions: in vivo
[26] = tested on: Mus musculus; assay: Toxicity in BALB/c mouse assessed as serum cholesterol level at 25 mg/kg, po after 24 hrs; type: organism-based; parameters: dose 25 mg/kg, route oral; conditions: in vivo
[27] = tested on: Trypanosoma cruzi; assay: Antitrypanosomal activity against trypomastigotes of Trypanosoma cruzi Y infected in BALB/c mouse peritoneal exudate macrophages assessed as reduction of parasite level at 10 ug/ml after 4 days; type: functional, organism-based
[28] = tested on: Mus musculus; assay: Toxicity in BALB/c mouse assessed as serum ALB level at 25 mg/kg, po after 24 hrs; type: organism-based; parameters: dose 25 mg/kg, route oral; conditions: in vivo
[29] = tested on: Mus musculus; assay: Toxicity in BALB/c mouse assessed as serum GGT level at 100 mg/kg, po after 24 hrs; type: organism-based; parameters: dose 100 mg/kg, route oral; conditions: in vivo
[30] = tested on: Mus musculus; assay: Toxicity in BALB/c mouse assessed as serum Ca2+ level at 50 mg/kg, po after 24 hrs; type: organism-based; parameters: dose 50 mg/kg, route oral; conditions: in vivo
[31] = tested on: Mus musculus; assay: Toxicity in BALB/c mouse assessed as serum cholesterol level at 100 mg/kg, po after 24 hrs; type: organism-based; parameters: dose 100 mg/kg, route oral; conditions: in vivo
[32] = tested on: Mus musculus; assay: Toxicity in BALB/c mouse assessed as serum uric acid level at 25 mg/kg, po after 24 hrs; type: organism-based; parameters: dose 25 mg/kg, route oral; conditions: in vivo
[33] = tested on: Mus musculus; assay: Toxicity in BALB/c mouse assessed as serum GGT level at 50 mg/kg, po after 24 hrs; type: organism-based; parameters: dose 50 mg/kg, route oral; conditions: in vivo
[34] = tested on: Mus musculus; assay: Toxicity in BALB/c mouse assessed as serum uric acid level at 100 mg/kg, po after 24 hrs; type: organism-based; parameters: dose 100 mg/kg, route oral; conditions: in vivo
[35] = tested on: Trypanosoma cruzi; assay: Antitrypanosomal activity against trypomastigotes of Trypanosoma cruzi Y in BALB/c mouse peritoneal exudate macrophages assessed as reduction of parasite infection to cells at 10 ug/ml treated simultaneously with parasite measured after 2 hrs; type: functional, organism-based
[36] = tested on: Mus musculus; assay: Toxicity in BALB/c mouse assessed as serum globulin level at 50 mg/kg, po after 24 hrs; type: organism-based; parameters: dose 50 mg/kg, route oral; conditions: in vivo
[37] = tested on: Mus musculus; assay: Toxicity in BALB/c mouse assessed as serum alkaline phosphatase level at 100 mg/kg, po after 24 hrs; type: organism-based; parameters: dose 100 mg/kg, route oral; conditions: in vivo
[38] = tested on: Trypanosoma cruzi; assay: Antitrypanosomal activity against epimastigotes of Trypanosoma cruzi Y after 5 days; type: functional, organism-based; conditions: 120 h
[39] = tested on: Mus musculus; assay: Toxicity in BALB/c mouse assessed as serum Ca2+ level at 100 mg/kg, po after 24 hrs; type: organism-based; parameters: dose 100 mg/kg, route oral; conditions: in vivo
[40] = tested on: Mus musculus; assay: Toxicity in BALB/c mouse assessed as serum ALT level at 100 mg/kg, po after 24 hrs; type: organism-based; parameters: dose 100 mg/kg, route oral; conditions: in vivo
[41] = tested on: Trypanosoma cruzi; assay: Induction of mitochondria degeneration in trypomastigotes of Trypanosoma cruzi Y at 3.5 uM after 24 hrs by […] electron microscopic analysis; type: functional, organism-based
[42] = tested on: Mus musculus; assay: Toxicity in BALB/c mouse assessed as serum ALB level at 50 mg/kg, po after 24 hrs; type: organism-based; parameters: dose 50 mg/kg, route oral; conditions: in vivo
[43] = tested on: Mus musculus; assay: Toxicity in BALB/c mouse assessed as serum alkaline phosphatase level at 50 mg/kg, po after 24 hrs; type: organism-based; parameters: dose 50 mg/kg, route oral; conditions: in vivo
[44] = tested on: Mus musculus; assay: Toxicity in BALB/c mouse assessed as serum Ca2+ level at 25 mg/kg, po after 24 hrs; type: organism-based; parameters: dose 25 mg/kg, route oral; conditions: in vivo
[45] = tested on: Trypanosoma cruzi; assay: Antitrypanosomal activity against trypomastigotes of Trypanosoma cruzi Y infected in BALB/c mouse assessed as reduction of parasite level in blood at 50 mg/kg, po administered after 5 days of postinfection qd for 5 days; type: functional, organism-based; parameters: dose 50 mg/kg
[46] = tested on: Mus musculus; assay: Toxicity in BALB/c mouse assessed as serum AML level at 25 mg/kg, po after 24 hrs; type: organism-based; parameters: dose 25 mg/kg, route oral; conditions: in vivo
[47] = tested on: Mus musculus; assay: Toxicity in BALB/c mouse assessed as serum BUN level at 50 mg/kg, po after 24 hrs; type: organism-based; parameters: dose 50 mg/kg, route oral; conditions: in vivo

Sequence of Cruzipain (Trypanosoma cruzi) (P25779 123-467 limits assumed): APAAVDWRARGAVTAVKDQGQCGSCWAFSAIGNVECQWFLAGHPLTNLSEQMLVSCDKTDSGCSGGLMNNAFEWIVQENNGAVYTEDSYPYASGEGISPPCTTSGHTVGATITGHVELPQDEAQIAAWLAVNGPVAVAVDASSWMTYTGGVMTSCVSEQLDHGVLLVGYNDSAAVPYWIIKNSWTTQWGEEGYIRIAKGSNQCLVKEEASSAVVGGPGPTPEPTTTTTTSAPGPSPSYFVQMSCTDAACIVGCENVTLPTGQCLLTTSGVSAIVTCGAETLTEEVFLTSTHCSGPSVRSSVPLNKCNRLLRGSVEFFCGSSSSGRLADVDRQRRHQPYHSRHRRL

## COc1cc(/C=N/NC(=O)c2nc(-c3ccc(O)cc3)no2)ccc1O
[1]
  inhibition: 25%
[2]
  CC50 at 24 h: > 100 mg/L

## COc1ccc(-c2noc(C(=O)N/N=C/c3ccc4c(c3)OCO4)n2)cc1
[1]
  inhibition: 44%
[2]
  CC50 at 24 h: > 100 mg/L

## O=C(N/N=C/c1ccc2c(c1)OCO2)c1nc(-c2ccc(Cl)cc2)no1
[3]
  Activity: 148 U/L
[4]
  Activity: 2.4 g/dL
[5]
  Activity: Non-toxic
[6]
  Activity: 59.5 mg/dL
[7]
  Activity: 32.5 U/L
[8]
  Activity: 17.8 mg/dL
[9]
  Activity: 80%
[1]
  inhibition: 42%
[10]
  selectivity ratio: 50
[11]
  Activity: 2.36 g/dL
[12]
  Activity: 5.1 g/dL
[13]
  Activity: 13.7 mg/dL
[14]
  Activity: 2.73 g/dL
[15]
  Activity: 4.75 g/dL
[16]
  IC50: 3.5 µM
[17]
  Activity: Active
[18]
  Activity: Active
[19]
  Activity: 4.86 g/dL
[20]
  Activity: 1170 U/L
[21]
  Activity: 1268 U/L
[22]
  Activity: 36 U/L
[23]
  Activity: Active
[24]
  Activity: 1 U/L
[25]
  Activity: 1.46 mg/dL
[26]
  Activity: 53 mg/dL
[27]
  Activity: Active
[28]
  Activity: 2.35 g/dL
[29]
  Activity: 1 U/L
[30]
  Activity: 9.45 mg/dL
[31]
  Activity: 54.5 mg/dL
[32]
  Activity: 1.65 mg/dL
[2]
  CC50 at 24 h: > 100 mg/L
[33]
  Activity: 0.67 U/L
[34]
  Activity: 2 mg/dL
[35]
  Activity: Active
[36]
  Activity: 2.16 g/dL
[37]
  Activity: 155.5 U/L
[38]
  IC50: 7.5 µM
[39]
  Activity: 9.56 mg/dL
[40]
  Activity: 29.67 U/L
[41]
  Activity: Active
[42]
  Activity: 2.67 g/dL
[43]
  Activity: 142.7 U/L
[44]
  Activity: 9.45 mg/dL
[45]
  Activity: Active
[46]
  Activity: 1183 U/L
[47]
  Activity: 18.07 mg/dL
